What was measured:
Cynomologous monkeys = assay: Hepatotoxic analysis, two-week oral study; format: in vivo; settings: 5 mg/kg/day oral, 2 weeks; on Autopsy, organ weight and histopathology: key: − no remarkable change; ↑ increase; ↓ decrease; + slight; ++ severe (diarrhea); on Blood biochemistry: key: − no remarkable change; ↑ increase; ↓ decrease; + slight; ++ severe (diarrhea); on Body weight: key: − no remarkable change; ↑ increase; ↓ decrease; + slight; ++ severe (diarrhea)
Text: The following parameters were examined: body weight, clinical signs, food consumption, blood biochemistry (GOT, GPT, ALP, LDH, γ-GTP, ChE, Bil, T.Pro, Alb, A/G ratio, T.Cho, NEFA, TG). After the administration period, the animals were sacrificed and autopsied. Organs and tissues were weighed, then examined histopathologically.

[1] = tested on: extracellular levels of ACh in striatum; assay: ACh release in striatum, microdialysis in freely moving rats; format: in vivo; settings: for ACh content in perfusate increased up to: striatum, young rats (2 month-old Wistar)
Protocol: ACh content in perfusate obtained from striatum (Bregma, A: 0.2 mm, L: 3.0 mm, H: 4.0 mm) of brain were continuously detected by means of HPLC and ECD through the microdialysis system using freely moving rats. See Messamore, E., et al, 32 Neuropharmacol. […] After an equilibration period of more than 2 hours, five fractions were allowed to obtain basal ACh content. Compounds were injected i.p., and thereafter, a microdialytic analysis was conducted for 3 hours.

5-HT3 receptor = target: T1, 5-HT3 receptor (Mus musculus, UniProt P23979); assay: serotonin 5-HT3 binding assay (NovaScreen), NIE-115 cells; settings: 25° C., 60 minutes
T1 construct: The receptor source was NIE-115 cells; host or cells: NIE-115 cells
T1 sequence (P23979 24-489): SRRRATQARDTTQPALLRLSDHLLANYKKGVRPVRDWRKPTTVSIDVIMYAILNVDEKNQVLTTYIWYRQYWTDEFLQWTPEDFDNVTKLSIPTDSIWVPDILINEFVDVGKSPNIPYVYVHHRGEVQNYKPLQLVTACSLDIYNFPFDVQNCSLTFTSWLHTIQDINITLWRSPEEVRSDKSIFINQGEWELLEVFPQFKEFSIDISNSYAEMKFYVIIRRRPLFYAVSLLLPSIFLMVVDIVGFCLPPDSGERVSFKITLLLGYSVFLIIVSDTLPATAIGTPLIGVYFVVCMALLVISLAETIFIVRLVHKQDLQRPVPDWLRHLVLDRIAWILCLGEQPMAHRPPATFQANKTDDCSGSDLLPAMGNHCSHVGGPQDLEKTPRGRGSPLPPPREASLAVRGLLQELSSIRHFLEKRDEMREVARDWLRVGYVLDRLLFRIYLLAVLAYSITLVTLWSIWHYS
Protocol: Binding affinity of a variety of compounds, including Cm.A, for the 5-HT3 receptor was investigated using a commercially available serotonin 5-HT3 binding assay (NovaScreen, Hanover, Md.). The receptor source was NIE-115 cells (See Lunnis, S. C. R. and Kilparick, G. J., 189: Evr. Jrnl. Pharmacol. 223 (1990); and Hoyer, D. and Heijt, H. C., 33 Mol. Pharmacol., 303 (1988)). The reference compound utilized was “MDL 72222,” a 5-HT3 receptor antagonist. Reactions were carried out in 20 mM HEPES (pH 7.4) containing 150 mM NaCl at 25° C. for 60 minutes. The reaction was terminated by rapid vacuum filtration onto glass fiber filters. Radioactivity trapped onto the filters was determined and compared with the control values.

[2] = tested on: scopolamine-induced spatial memory deficit; assay: Eight-arm radial maze, scopolamine-induced deficit in spatial memory; format: in vivo, male Wistar rats; settings: oral dose 0.03~0.3 mg/kg; scopolamine 0.5 mg/kg i.p.
Protocol: (§1) Using male Wistar rats, the anti-amnestic effects of Cm.A on spatial cognition was evaluated using an eight-arm radial maze task. After repeated trials for spatial cognition, memory-established rats (which had more than 7 correct choices and less than one error) were utilized.

SEP-lesioned rats = assay: Eight-arm radial maze, medial septal nucleus (SEP) lesion-induced deficit; format: in vivo, male Wistar rats; settings: 3.0 mg/kg/day, repeated treatment for 2 weeks
Protocol: as §1
SEP (Bregma, A: 0.2 mm, L: −1.0 mm, H: −5.8 mm) was lesioned by microinjection with ibotenic acid (10 μg) similarly to that of the BF lesion of Example 4A(3).

healthy volunteers = assay: Human Phase IA single-dose, dose-escalation clinical trial; format: in vivo; settings: single oral dose 2 mg to 180 mg
Protocol: A Phase IA clinical trial was conducted as a single-dose, double-blind, placebo-controlled, dose-escalation study. This study investigated the safety and pharmacokinetic profile of the particularly preferred salt (depicted in FIG. 1B; N-[2-( 1-benzylpiperizin-4-yl)ethyl]-2,3-dihydro-9-methoxy-1H-pyrrolo[3,4-b]quinolin-1-one hemifumarate) of the compound of FIG. 1A, N-[2-(1-benzylpiperzin-4-yl)ethyl]-2,3-dihydro-9-methoxy-1H-pyrrolo[3,4-b] quinolin-1-one. The compound was administered orally in doses from 2 mg to 180 mg to healthy volunteers (male and female), aged 50-75 years, under fasting conditions. A total of 68 individuals were enrolled in the study and completed the trial. A maximum tolerated dose was not identified in this study, i. e., even at 180 mg, there were insufficient adverse events to establish a true “maximum tolerated dose” in this study.

BF-lesioned rats = assay: Water maze, BF lesion-induced deficit in spatial learning; settings: oral; Cm.A 0.3, 1.0 and 3.0 mg/kg/day, THA 1.0 mg/kg/day, E2020 0.3 and 1.0 mg/kg/day
Protocol: For each training trial, the rat was placed in the water (22° C.) such that the animal faced the wall of a circular pool (150 cm in diameter, 45 cm in height), and started at one of five starting points (selected randornly). In each trial, the latency period to escape onto the hidden platform (fixed in the middle of one quadrant, 2 cm below the surface of water) was recorded. These procedures were repeated once or twice a day during the experimental period.

Structure (SMILES): COc1c2c(nc3ccccc13)CN(CCC1CCN(Cc3ccccc3)CC1)C2=O [Cm.A, 2-[2-(1-benzylpiperizin-4-yl)ethyl]-2,3-dihydro-9-methoxy-1H-pyrrolo[3,4-b]quinolin-1-one hemifumarate]
- clinical signs during the dosing period (Cynomologous monkeys): caused soft stools, but to a lesser extent than the other two compounds
- hepatotoxicity (Cynomologous monkeys): no hepatotoxicity
- Autopsy, organ weight and histopathology (Cynomologous monkeys; F): −
- Blood biochemistry (Cynomologous monkeys; F): −
- Body weight (Cynomologous monkeys; F): −
- Clinical signs softstool (Cynomologous monkeys; F): +
- Clinical signs vomiting (Cynomologous monkeys; F): −
- Food consumption (Cynomologous monkeys; F): −
- Autopsy, organ weight and histopathology (Cynomologous monkeys; M): −
- Blood biochemistry (Cynomologous monkeys; M): −
- Body weight (Cynomologous monkeys; M): −
- Clinical signs softstool (Cynomologous monkeys; M): +
- Clinical signs vomiting (Cynomologous monkeys; M): −
- Food consumption (Cynomologous monkeys; M): −
- centrally acting cholinergic symptoms (tremor, chewing and yawning) ([1]; striatum study, young rats, i.p., data not shown): few centrally acting cholinergic symptoms
- ACh content in perfusate increased up to ([1]; 10 mg/kg i.p.): 131%
- ACh content in perfusate increased up to ([1]; 30 mg/kg i.p.): 369%
- IC50 (5-HT3 receptor; IC50, 20 mM HEPES pH 7.4, 150 mM NaCl): 1180 nM
- Ki (5-HT3 receptor; Ki, 20 mM HEPES pH 7.4, 150 mM NaCl): 552 nM
- deficit of spatial cognition (correct choices, errors) [2]: significantly improved the deficit of spatial cognition
- deficit of spatial memory (SEP-lesioned rats): significantly improved the deficit of spatial memory
- safety parameters (vital signs, ECG, blood chemistry, hematology, urinalysis, physical examination) (healthy volunteers): no clinically significant changes
- serious adverse events (healthy volunteers): no serious adverse events reported
- maximum tolerated dose (healthy volunteers; fasting, aged 50-75 years): > 180 mg
- mild adverse events (healthy volunteers; 68 individuals enrolled): seven mild adverse events
- deficit of spatial learning (escape latency) (BF-lesioned rats): improved the deficit of spatial learning
